Source: US20210045385A1, “PYRIDAZINONE-SUBSTITUTED KETOXIMES AS HERBICIDES” (FMC Corporation, priority 2018, published 2021)

Columns and labels:
Type in all cases: in vivo
[1] = system: barnyardgrass (Echinochloa crus-galli); assay: Test B flooded paddy test, visual plant response rating; conditions: 250 g ai/ha, Flood, applied to paddy water, 2-leaf stage, evaluated after 13 to 15 days
Method in brief: (§1)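 Test pots are flooded 3 cm above the soil at treatment, and the test substance is introduced into this standing water. After keeping the flood level and growing plants, treated at the 2-leaf stage, for 13 to 15 days under glass, injury is assessed visually versus controls.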

[2] = system: ducksalad (Heteranhera limosa); assay: as above; conditions: 250 g ai/ha, Flood, applied to paddy water, 2-leaf stage, evaluated after 13 to 15 days
Method in brief: as §1

rice (Oryza sativa) = assay: as above; conditions: 250 g ai/ha, Flood, applied to paddy water, 2-leaf stage, evaluated after 13 to 15 days
Method in brief: as §1

[3] = system: sedge, umbrella (small-flower umbrella sedge, Cyperus difformis); assay: as above; conditions: 250 g ai/ha, Flood, applied to paddy water, 2-leaf stage, evaluated after 13 to 15 days
Method in brief: as §1

[4] = system: barnyardgrass (Echinochloa crus-galli); assay: Test A postemergence, visual plant response rating; conditions: for Barnyardgrass plant response rating (0 to 100 scale): 500 g ai/ha, postemergence, 0 is no effect, 100 is complete control; for Barnyardgrass plant response rating: Postemergence, 125 g ai/ha, 0 to 100 scale (0 no effect, 100 complete control)
Method in brief: (§2)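 Preemergence: seeds in loam/sand blend given directed soil spray of compound in non-phytotoxic solvent with surfactant. Postemergence: plants 2–10 cm, one- to two-leaf stage, sprayed with same formulation. Visual injury rated vs untreated controls after ~10 days in greenhouse, 0 (no effect) to 100 (complete control).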

kochia (Kochia scoparia) [5] = assay: Test A postemergence, visual plant response rating; conditions: for Kochia plant response rating (0 to 100 scale): 500 g ai/ha, postemergence, 0 is no effect, 100 is complete control; for Kochia plant response rating: Postemergence, 125 g ai/ha, 0 to 100 scale (0 no effect, 100 complete control)
Method in brief: as §2

[6] = system: ragweed (common ragweed, Ambrosia elatior); assay: Test A postemergence, visual plant response rating; conditions: for Ragweed plant response rating (0 to 100 scale): 500 g ai/ha, postemergence, 0 is no effect, 100 is complete control; for Ragweed plant response rating: Postemergence, 125 g ai/ha, 0 to 100 scale (0 no effect, 100 complete control)
Method in brief: as §2

corn (Zea mays) = assay: Test A postemergence, visual plant response rating; conditions: for Corn plant response rating (0 to 100 scale): 500 g ai/ha, postemergence, 0 is no effect, 100 is complete control; for Corn plant response rating: Postemergence, 125 g ai/ha, 0 to 100 scale (0 no effect, 100 complete control)
Method in brief: as §2

[7] = system: foxtail, giant (giant foxtail, Setaria faberii); assay: Test A postemergence, visual plant response rating; conditions: for Foxtail, Giant plant response rating (0 to 100 scale): 500 g ai/ha, postemergence, 0 is no effect, 100 is complete control; for Foxtail, Giant plant response rating: Postemergence, 125 g ai/ha, 0 to 100 scale (0 no effect, 100 complete control)
Method in brief: as §2

[8] = system: wheat (Triticum aestivum); assay: Test A postemergence, visual plant response rating; conditions: for Wheat plant response rating (0 to 100 scale): 500 g ai/ha, postemergence, 0 is no effect, 100 is complete control; for Wheat plant response rating: Postemergence, 125 g ai/ha, 0 to 100 scale (0 no effect, 100 complete control)
Method in brief: as §2

[9] = system: blackgrass (Alopecurus myosuroides); assay: Test A postemergence, visual plant response rating; conditions: for Blackgrass plant response rating (0 to 100 scale): 500 g ai/ha, postemergence, 0 is no effect, 100 is complete control; for Blackgrass plant response rating: Postemergence, 125 g ai/ha, 0 to 100 scale (0 no effect, 100 complete control)
Method in brief: as §2

[10] = system: galium (catchweed bedstraw, Galium aparine); assay: Test A postemergence, visual plant response rating; conditions: for Galium plant response rating (0 to 100 scale): 500 g ai/ha, postemergence, 0 is no effect, 100 is complete control; for Galium plant response rating: Postemergence, 125 g ai/ha, 0 to 100 scale (0 no effect, 100 complete control)
Method in brief: as §2

[11] = system: Italian ryegrass (Lolium multiflorum); assay: Test A postemergence, visual plant response rating; conditions: for Ryegrass, Italian plant response rating (0 to 100 scale): 500 g ai/ha, postemergence, 0 is no effect, 100 is complete control; for Ryegrass, Italian plant response rating: Postemergence, 125 g ai/ha, 0 to 100 scale (0 no effect, 100 complete control)
Method in brief: as §2

[12] = system: pigweed (Amaranthus retroflexus); assay: Test A postemergence, visual plant response rating; conditions: for Pigweed plant response rating (0 to 100 scale): 500 g ai/ha, postemergence, 0 is no effect, 100 is complete control; for Pigweed plant response rating: Postemergence, 125 g ai/ha, 0 to 100 scale (0 no effect, 100 complete control)
Method in brief: as §2

[13] = system: barnyardgrass (Echinochloa crus-galli); assay: Test A preemergence, visual plant response rating; conditions: for Barnyardgrass plant response rating: 125 g ai/ha, preemergence, 0 to 100 scale, 0 no effect, 100 complete control; for Barnyardgrass plant response rating (0 to 100 scale): 500 g ai/ha Preemergence, approx. 10 days
Method in brief: as §2

kochia (Kochia scoparia) [14] = assay: Test A preemergence, visual plant response rating; conditions: for Kochia plant response rating: 125 g ai/ha, preemergence, 0 to 100 scale, 0 no effect, 100 complete control; for Kochia plant response rating (0 to 100 scale): 500 g ai/ha Preemergence, approx. 10 days
Method in brief: as §2

[15] = system: ragweed (common ragweed, Ambrosia elatior); assay: Test A preemergence, visual plant response rating; conditions: for Ragweed plant response rating (0 to 100 scale): 500 g ai/ha Preemergence, approx. 10 days; for Ragweed plant response rating: 125 g ai/ha, preemergence, 0 to 100 scale, 0 no effect, 100 complete control
Method in brief: as §2

[16] = system: foxtail, giant (giant foxtail, Setaria faberii); assay: Test A preemergence, visual plant response rating; conditions: for Foxtail, Giant plant response rating: 125 g ai/ha, preemergence, 0 to 100 scale, 0 no effect, 100 complete control; for Foxtail, Giant plant response rating (0 to 100 scale): 500 g ai/ha Preemergence, approx. 10 days
Method in brief: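 Compared with untreated controls, treated plants received a visual injury score on a 0–100 scale around 10 days after application. The compound, in a non-phytotoxic solvent with surfactant, was given as a preemergence soil spray or postemergence at the one- to two-leaf stage.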

[17] = system: Italian ryegrass (Lolium multiflorum); assay: Test A preemergence, visual plant response rating; conditions: for Ryegrass, Italian plant response rating: 125 g ai/ha, preemergence, 0 to 100 scale, 0 no effect, 100 complete control; for Ryegrass, Italian plant response rating (0 to 100 scale): 500 g ai/ha Preemergence, approx. 10 days
Method in brief: as §2

[18] = system: pigweed (Amaranthus retroflexus); assay: Test A preemergence, visual plant response rating; conditions: for Pigweed plant response rating: 125 g ai/ha, preemergence, 0 to 100 scale, 0 no effect, 100 complete control; for Pigweed plant response rating (0 to 100 scale): 500 g ai/ha Preemergence, approx. 10 days
Method in brief: as §2

Compound	Plant response rating, Barnyardgrass (0 to 100 scale, 0 is no effect, 100 is complete control) [1]	Plant response rating, Ducksalad (0 to 100 scale, 0 is no effect, 100 is complete control) [2]	Plant response rating, Rice (0 to 100 scale, 0 is no effect, 100 is complete control) (rice (Oryza sativa))	Plant response rating, Sedge, Umbrella (0 to 100 scale, 0 is no effect, 100 is complete control) [3]	Barnyardgrass plant response rating (0 to 100 scale) [4]	Barnyardgrass plant response rating [4]	Kochia plant response rating (0 to 100 scale) (kochia (Kochia scoparia) [5])	Kochia plant response rating (kochia (Kochia scoparia) [5])	Ragweed plant response rating (0 to 100 scale) [6]	Ragweed plant response rating [6]	Corn plant response rating (0 to 100 scale) (corn (Zea mays))	Corn plant response rating (corn (Zea mays))	Foxtail, Giant plant response rating (0 to 100 scale) [7]	Foxtail, Giant plant response rating [7]	Wheat plant response rating (0 to 100 scale) [8]	Wheat plant response rating [8]	Blackgrass plant response rating (0 to 100 scale) [9]	Blackgrass plant response rating [9]	Galium plant response rating (0 to 100 scale) [10]	Galium plant response rating [10]	further results
CON=C(c1cccc(C(F)(F)F)c1Cl)c1c(O)c(C)nn(C)c1=O [Compound 103]	0	0	0	0	30	20	20	0	20	10	0	0	30	0	0	0	40	20	70	40	Ryegrass, Italian plant response rating (0 to 100 scale) [11]: 50; Ryegrass, Italian plant response rating [11]: 0; Pigweed plant response rating (0 to 100 scale) [12]: 30; Pigweed plant response rating [12]: 10; Barnyardgrass plant response rating [13]: 0; Barnyardgrass plant response rating (0 to 100 scale) [13]: 40; Kochia plant response rating (kochia (Kochia scoparia) [14]): 0; Kochia plant response rating (0 to 100 scale) (kochia (Kochia scoparia) [14]): 0; Ragweed plant response rating (0 to 100 scale) [15]: 50; Foxtail, Giant plant response rating [16]: 0; Foxtail, Giant plant response rating (0 to 100 scale) [16]: 20; Ryegrass, Italian plant response rating [17]: 30; Ryegrass, Italian plant response rating (0 to 100 scale) [17]: 70; Pigweed plant response rating [18]: 0; Pigweed plant response rating (0 to 100 scale) [18]: 50
CON=C(c1ccccc1C1CC1)c1c(O)c(C)nn(C)c1=O [Compound 104]	0	0	0	0	80	40	80	70	90	80	30	30	80	70	80	40	90	80	100	90	Ryegrass, Italian plant response rating (0 to 100 scale) [11]: 100; Ryegrass, Italian plant response rating [11]: 90; Pigweed plant response rating (0 to 100 scale) [12]: 90; Pigweed plant response rating [12]: 70; Barnyardgrass plant response rating [13]: 60; Barnyardgrass plant response rating (0 to 100 scale) [13]: 80; Kochia plant response rating (kochia (Kochia scoparia) [14]): 20; Kochia plant response rating (0 to 100 scale) (kochia (Kochia scoparia) [14]): 70; Ragweed plant response rating [15]: 50; Ragweed plant response rating (0 to 100 scale) [15]: 80; Foxtail, Giant plant response rating [16]: 80; Foxtail, Giant plant response rating (0 to 100 scale) [16]: 100; Ryegrass, Italian plant response rating [17]: 90; Ryegrass, Italian plant response rating (0 to 100 scale) [17]: 100; Pigweed plant response rating [18]: 70; Pigweed plant response rating (0 to 100 scale) [18]: 70
CON=C(c1ccccc1C1CC1)c1c(O)c(C)nn(C)c1=O [Compound 105]	0	0	0	0	80	40	80	70	90	90	30	10	80	70	80	60	90	80	90	90	Ryegrass, Italian plant response rating (0 to 100 scale) [11]: 90; Ryegrass, Italian plant response rating [11]: 90; Pigweed plant response rating (0 to 100 scale) [12]: 70; Pigweed plant response rating [12]: 60; Barnyardgrass plant response rating [13]: 60; Barnyardgrass plant response rating (0 to 100 scale) [13]: 80; Kochia plant response rating (kochia (Kochia scoparia) [14]): 10; Kochia plant response rating (0 to 100 scale) (kochia (Kochia scoparia) [14]): 70; Ragweed plant response rating [15]: 50; Ragweed plant response rating (0 to 100 scale) [15]: 60; Foxtail, Giant plant response rating [16]: 60; Foxtail, Giant plant response rating (0 to 100 scale) [16]: 90; Ryegrass, Italian plant response rating [17]: 90; Ryegrass, Italian plant response rating (0 to 100 scale) [17]: 100; Pigweed plant response rating [18]: 70; Pigweed plant response rating (0 to 100 scale) [18]: 70
Cc1nn(C)c(=O)c(C(=NOCC=CCl)c2ccc(F)c3ccccc23)c1O [Compound 106]	0	0	0	0	90	80	50	20	90	70	30	20	70	60	50	0	90	80	90	80	Ryegrass, Italian plant response rating (0 to 100 scale) [11]: 100; Ryegrass, Italian plant response rating [11]: 70; Pigweed plant response rating (0 to 100 scale) [12]: 80; Pigweed plant response rating [12]: 70; Barnyardgrass plant response rating [13]: 50; Barnyardgrass plant response rating (0 to 100 scale) [13]: 90; Kochia plant response rating (kochia (Kochia scoparia) [14]): 0; Kochia plant response rating (0 to 100 scale) (kochia (Kochia scoparia) [14]): 20; Ragweed plant response rating [15]: 40; Ragweed plant response rating (0 to 100 scale) [15]: 80; Foxtail, Giant plant response rating [16]: 100; Foxtail, Giant plant response rating (0 to 100 scale) [16]: 100; Ryegrass, Italian plant response rating [17]: 60; Ryegrass, Italian plant response rating (0 to 100 scale) [17]: 90; Pigweed plant response rating [18]: 50; Pigweed plant response rating (0 to 100 scale) [18]: 80
Cc1nn(C)c(=O)c(C(=NOCC=CCl)c2ccc(F)c3ccccc23)c1O [Compound 107]	0	0	0	0	90	80	60	30	90	80	20	0	80	70	40	0	80	80	90	70	Ryegrass, Italian plant response rating (0 to 100 scale) [11]: 90; Ryegrass, Italian plant response rating [11]: 70; Pigweed plant response rating (0 to 100 scale) [12]: 100; Pigweed plant response rating [12]: 80; Barnyardgrass plant response rating [13]: 70; Barnyardgrass plant response rating (0 to 100 scale) [13]: 90; Kochia plant response rating (kochia (Kochia scoparia) [14]): 0; Kochia plant response rating (0 to 100 scale) (kochia (Kochia scoparia) [14]): 30; Ragweed plant response rating [15]: 20; Ragweed plant response rating (0 to 100 scale) [15]: 80; Foxtail, Giant plant response rating [16]: 80; Foxtail, Giant plant response rating (0 to 100 scale) [16]: 100; Ryegrass, Italian plant response rating [17]: 70; Ryegrass, Italian plant response rating (0 to 100 scale) [17]: 90; Pigweed plant response rating [18]: 60; Pigweed plant response rating (0 to 100 scale) [18]: 80
